The values that follow come from patent EP0652009A1, “Identification and use of protease inhibitors” (ELI LILLY AND COMPANY, priority 1993, dated 1995).

Where two headings read alike, the source gives them in different places. Non-standard residues stand in square brackets, D forms with d. Residues, ends and D or L forms follow the SMILES beside them. Sta = CC(C)C[C@H](N)[C@@H](O)CC(=O)O; N(iPr)Gly = CC(C)NCC(=O)O

One test relates to βAP production. Briefly: Assay 4: βAP production inhibition (cellular assay, ELISA of conditioned media, normalised to MTT). The settings on record: compound at 10 µg/mL; 293 751 SWE and CHO 751 SWE cells (table does not say which); βAP ELISA divided by MTT result, relative to drug-free control; mean and standard deviation of at least six replicate assays. It counts as cell-based, human; Chinese hamster. An excerpt:
The test system used to measure the βAP production inhibition activity is typically a cellular assay or an animal model. Preferably, the βAP production inhibition activity is obtained by direct measurement of βAP production in a cellular assay, as described in WO9410569, the full disclosure of which is incorporated herein by reference. This assay is exemplified in Assay 4, below.
Two cell lines (human kidney cell line 293 and Chinese hamster ovary cell line CHO) were stably transfected with the gene for APP-751 containing the double mutation Lys₆₅₁-Met₆₅₂ to Asn₆₅₁-Leu₆₅₂ (APP-751 numbering) commonly called the Swedish mutation using the method described in Citron et al., (1992) Nature 360:672-674. The transfected cell lines were designated as 293 751 SWE and CHO 751 SWE, and were plated in Corning 96 well plates at 2.5x10⁴ or 1x10⁴ cells per well respectively in Dulbecco's minimal essential media plus 10% fetal bovine serum. Following overnight incubation at 37°C in an incubator equilibrated with 10% carbon dioxide (CO₂), the media were removed and replaced with 200 µL per well of media containing an aspartyl protease inhibitor. After a two hour pretreatment period, the media were again removed and replaced with fresh media containing the aspartyl protease inhibitor and the cells were incubated for an additional two hours.
After treatment, plates were centrifuged in a Beckman GPR at 1200 rpm for five minutes at room temperature to pellet cellular debris from the conditioned media. From each well, 100µL of conditioned media were transferred into an ELISA plate precoated with antibody 266 against βAP-13-28 (Seubert et al., supra.) and stored at 4°C overnight. An ELISA assay employing labelled antibody 6C6 (against βAP-1-16) was run the next day to measure the amount of βAP produced.
Cytotoxic effects of the compounds were measured by a modification of the method of Hansen et al., (1989) J. Immun. Meth. 119:203-210. To the cells remaining in the tissue culture plate, was added 25 µL of a 3,(4,5-dimethylthiazol-2-yl)2,5-diphenyltetrazolium bromide (MTT) stock solution (5 mg/mL) to a final concentration of 1 mg/mL. Cells were incubated at 37°C for one hour, and cellular activity was stopped by the addition of an equal volume of MTT lysis buffer (20% w/v sodium dodecylsulfate in 50% DMF, pH 4.7). Complete extraction was achieved by overnight shaking at room temperature. The difference in the OD562nm and the OD650nm was measured in a Molecular Devices UVmax microplate reader as an indicator of the cellular viability.
The results of the βAP ELISA were fit to a standard curve and expressed as ng/mL βAP peptide. In order to normalize for cytotoxicity, these βAP results were divided by the MTT results and expressed as a percentage of the results from a drug-free control.
The compounds prepared above in Examples 9, 12, 13, 20-23, 23A, 24, 30, 41-43, 45, and 48 were assayed for βAP production inhibition activity in cells at 10 µg/mL using Assay 4. The results presented in Assay Table 4, below, are the mean and standard deviation of at least six replicate assays. Assay Table 4

Test [1] addresses T1, Human liver cathepsin D (Homo sapiens, UniProt P07339). Briefly: Assay 2: cathepsin D inhibition activity (non-cellular fluorometric assay). It counts as biochemical. Also on record: Human liver cathepsin D (Athens Research and Technology, Athens, GA); purchased Athens Research and Technology, Athens, GA. The procedure: (§1) A second non-cellular assay for determining in vitro aspartyl protease inhibitory activity utilizes a microtiter plate, where a suitable aspartyl protease, such as cathepsin D is added to each well together with controls. A suitable fluorometric substrate is added to each well. The resultant reaction mixture is allowed to react for a preselected time, e.g., 30 minutes. After enzyme activity is terminated, the substrate or its product may be determined fluorometrically and then the protease inhibition activity may be calculated based on the rates of substrate turnover. This assay is exemplified in Assay 2, below.
(§2) A fluorometric assay was adapted from the method disclosed by Murakami et al., (1981) Anal. Biochem. 110:232-239 for measuring renin activity. Human liver cathepsin D (Athens Research and Technology, Athens, GA) was diluted in assay buffer, 200mM NaOAc, pH 4.5, 150mM NaCl to 500 ng/mL and then 100 µL of this cathepsin D solution was added to each well of a 96 well plate with the exception of control wells which received just 100 µL of assay buffer. Compound stocks were prepared by dissolving an aspartyl protease inhibitor in DMSO for each concentration tested in the assay and then 5 µL of compound stock was added to each of the wells prepared above. Blank and enzyme control wells each received 5 µL of the DMSO vehicle.
(§3) Following a ten minute incubation at 25°C to allow enzyme/compound interaction, 5 µL of 500µM fluorometric substrate (Suc-Arg-Pro-Phe-His-Leu-Leu-Val-Try-AMC [SEQ ID NO:4], Bachem Biosciences, Philadelphia, PA) in DMSO was added per well to initiate the reaction. After incubation at 37°C for 30 minutes, cathepsin D activity was terminated by the addition of 100 µL per well of 400 mU/mL microsomal leucine aminopeptidase (EC 3.4.11.2, Sigma, St. Louis, MO) in 1M Tris-HCl, pH 8.0.
(§4) The plates were then analyzed in a fluorometer (CytoFluor 2350, Millipore, Bedford, MA) with an excitation wavelength of 360nm and an emission wavelength of 460nm, in order to check for background fluorescence due to test compounds. Following a two hour incubation at 37°C, to allow the aminopeptidase to release the fluorophore, 7-amido-4-methylcoumarin (AMC) from the products of cathepsin D cleavage, the plates were again analyzed in the fluorometer. In order to check for potential false positives, i.e., inhibitors of microsomal leucine aminopeptidase, residual aminopeptidase activity was monitored directly in each well by the addition of 20 µL/well of 2.5mM Leu-pNA (Bachem Biosciences, Philadelphia, PA) in 10% DMSO. Aminopeptidase activity was measured as an increase in the absorbance at 405nm in a UVmax microplate reader (Molecular Devices, Menlo Park, CA).
(§5) The compounds prepared in Examples 9, 12, 13, 20-23, 23A, 24, 30, 41-43, 45, and 48 were assayed at 10 µg/mL for cathepsin D inhibition activity using Assay 2. Cathepsin D activity was linear under these conditions and the results are expressed as percent inhibition of the control activity in Assay Table 2, below. All results presented are the mean and standard deviation of at least four replicate assays. Assay Table 2
Target sequence in this assay (P07339 169-412 limits assumed): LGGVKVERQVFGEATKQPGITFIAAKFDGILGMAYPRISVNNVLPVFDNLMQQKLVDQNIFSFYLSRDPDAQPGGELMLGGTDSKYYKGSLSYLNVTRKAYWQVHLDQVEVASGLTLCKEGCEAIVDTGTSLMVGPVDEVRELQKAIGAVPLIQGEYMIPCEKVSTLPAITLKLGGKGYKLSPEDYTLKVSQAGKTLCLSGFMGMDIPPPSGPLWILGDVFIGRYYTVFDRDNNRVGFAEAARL
Target sequence in this assay (P07339 65-162 limits assumed): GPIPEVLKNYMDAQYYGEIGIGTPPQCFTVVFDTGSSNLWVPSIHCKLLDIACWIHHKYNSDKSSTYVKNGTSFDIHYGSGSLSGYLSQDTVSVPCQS

The target of test [2] is T1, Human liver cathepsin D. Described as above. Set-up: Human liver cathepsin D (Athens Research and Technology, Athens, GA); purchased Athens Research and Technology, Athens, GA; host or cells: human liver (by the product's printed name). The format is biochemical. As to the method: as §1, §2, §3, §4, §5
Target sequence in this assay (P07339 65-412): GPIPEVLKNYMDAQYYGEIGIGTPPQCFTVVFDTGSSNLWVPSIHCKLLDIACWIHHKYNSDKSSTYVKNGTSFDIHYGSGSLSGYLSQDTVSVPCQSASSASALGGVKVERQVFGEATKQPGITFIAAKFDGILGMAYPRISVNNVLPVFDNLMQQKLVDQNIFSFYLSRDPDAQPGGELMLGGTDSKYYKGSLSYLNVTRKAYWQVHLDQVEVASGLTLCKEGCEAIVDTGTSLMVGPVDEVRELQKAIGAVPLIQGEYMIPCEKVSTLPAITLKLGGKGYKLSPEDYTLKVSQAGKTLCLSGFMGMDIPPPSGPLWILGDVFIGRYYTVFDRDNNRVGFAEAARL
[3] abbreviates: compound at 10 µg/mL, percent inhibition of control activity, mean and standard deviation of at least four replicate assays.

For `Cc1ccc(C(=O)C2NCCc3ccccc32)cc1C(=O)N[C@@H](Cc1ccccc1)[C@H](O)CN1C[C@H]2CCCC[C@H]2C[C@H]1C(=O)NC(C)(C)C` (relative stereo) [Example 30, [3S-(3R*,4aR*,8aR*,2'S*,3'R*)]-2-[2'-Hydroxy-3'-phenylmethyl-4'-aza-5'-oxo-5'-(3''-[1''',2''',3''',4'''-tetrahydroisoquinolin-1'''-ylcarbonyl]-6''-methyl)phenyl]pentyl-decahydroisoquinoline-3-N-t-butylcarboxamide], the “βAP Production Inhibition” value in the test with βAP production turned out to be 69.2 ± 2.2%. In addition, the “Cathepsin D Inhibition” value on Human liver cathepsin D [1] (setting [3]) is on record as 69.2 ± 3.5%.

As a reminder, the inhibition is the share of the control response that was lost under treatment. Read a low inhibition as little suppression. `Cc1cccc2ccc(C(=O)N[C@@H](CC(N)=O)C(=O)N[C@@H](Cc3ccccc3)[C@H](O)Cc3ccccc3C(=O)NC(C)(C)C)nc12` [Example 9, [1S-(1R*,4R*,5S*)]-N-(1-(2-Amino-2-oxoethyl)-2-oxo-3-aza-4-phenylmethyl-5-hydroxy-6-(2-(1-t-butylamino-1-oxomethyl)phenyl)hexyl)-8-methylquinolin-2-yl carboxamide]: the figures for the inhibition at 10 µg/mL with βAP production and against Human liver cathepsin D [1] were 44.4 ± 7.7% and 44.4 ± 1.9%, respectively.

`CC(C)C(NC(=O)C(Cc1cccc2ccccc12)NC(=O)OC(C)(C)C)C(=O)NC(Cc1ccccc1)C(O)Cc1ccccc1C(=O)NC(C)(C)C` (stereo not drawn) [Example 23, [2R-(2R*,3S*,6S*,9S*)]-N-t-Butyl-2-[2-hydroxy-3-phenylmethyl-4,7-diaza-5,8-dioxo-6-(1-methylethyl)-9-N(t-butoxycarbonyl)amino-10-naphth-1-yl]decyl benzamide]: the inhibition at 10 µg/mL in the test with βAP production is 96.3 ± 2.8%; on Human liver cathepsin D [1] (setting [3]), 96.3 ± 0.9%.

As to `CC(C)C(NC(=O)C(Cc1cccc2ccccc12)NC(=O)OC(C)(C)C)C(=O)NC(Cc1ccccc1)C(O)Cc1ccccc1C(=O)NC(C)(C)C` (stereo not drawn) [Example 24, [2R-(2R*,3S*,6S*,9R*)]-N-t-Butyl-2-[2-hydroxy-3-phenylmethyl-4,7-diaza-5,8-dioxo-6-(1-methylethyl)-9-N(t-butoxycarbonyl)amino-10-naphth-1-yl]decyl benzamide], the “βAP Production Inhibition” value in the test on βAP production is listed as 92.7 ± 1.4%. Also, the “Cathepsin D Inhibition” value on Human liver cathepsin D [1] (setting [3]) is reported as 92.7 ± 0.5%.

As for `CC(=O)NCC(=O)N[C@H](C(=O)N[C@H](C(=O)N[C@@H](CC(C)C)[C@@H](O)CC(=O)N[C@@H](C)C(=O)N[C@H](C(=O)O)[C@@H](C)O)C(C)C)C(C)C` [Example 41, CH3C(O)-Gly-Val-Val-Sta-Ala-Thr-OH] (Ac-GVV[Sta]AT-OH), the “βAP Production Inhibition” value in the test with βAP production is given as -6.2 ± 6.2%. The compound also returned an inhibition at 10 µg/mL against Human liver cathepsin D [2] of 98.3 ± 0.1%.

As for `CC(C)C[C@H](NC(=O)[C@@H](NC(=O)[C@@H](NC(=O)CNC(C)C)C(C)C)C(C)C)[C@@H](O)CC(=O)N[C@@H](C)C(=O)N[C@H](C(=O)O)[C@@H](C)O` [Example 42, (CH3)2CH-Gly-Val-Val-Sta-Ala-Thr-OH] (H-[N(iPr)Gly]VV[Sta]AT-OH), in the test on βAP production, the “βAP Production Inhibition” value came to 13.1 ± 7.5%. The compound further yielded an inhibition at 10 µg/mL against Human liver cathepsin D [2] of 89.5 ± 1.3%.

Regarding `CC(C)C[C@H](NC(=O)[C@@H](NC(=O)[C@@H](NC(=O)CN)C(C)C)C(C)C)[C@@H](O)CC(=O)N[C@@H](C)C(=O)N[C@H](C(=O)O)[C@@H](C)O` [Example 43, Gly-Val-Val-Sta-Ala-Thr-OH] (H-GVV[Sta]AT-OH), in the test with βAP production, the “βAP Production Inhibition” value came out at 16.2 ± 8.5%. On Human liver cathepsin D [2], this compound displayed an inhibition at 10 µg/mL of 87.9 ± 2.4%.

Consider `CC(C)C[C@H](NC(=O)[C@@H](NC(=O)CN)C(C)C)[C@@H](O)CC(=O)N[C@@H](C)C(=O)N[C@H](C(=O)O)[C@@H](C)O` [Example 45, Gly-Val-Sta-Ala-Thr-OH] (H-GV[Sta]AT-OH), for which the “βAP Production Inhibition” value with βAP production stood at 3.3 ± 1.1%. This compound also displayed an inhibition at 10 µg/mL against Human liver cathepsin D [2] of 30.6 ± 4.8%.

Turning to `CC[C@H](C)[C@H](NC(=O)C[C@H](O)[C@H](CC(C)C)NC(=O)[C@@H](NC(=O)CNC(C)C)C(C)C)C(=O)N[C@@H](C)C(=O)N[C@H](C(=O)O)[C@@H](C)O` [Example 48, (CH3)2CH-Gly-Val-Sta-Ile-Ala-Thr-OH] (H-[N(iPr)Gly]V[Sta]IAT-OH), in the test with βAP production, the “βAP Production Inhibition” value is on record as 1.6 ± 19.8%. At Human liver cathepsin D [2], this compound showed an inhibition at 10 µg/mL of 79.9 ± 2.7%.
